Values joined by “and” are separate entries in the source; they are usually repeats but may differ in a detail not shown here. Equal values may be shown once. Toxic doses and inconclusive results are not listed. No stated cut-off is given here; in the data, active means T/C of 150% or more; inactive means T/C below 125%.
Tested on: L1210 leukemia ip in BDF1 mice, survival T/C
Assay: NCI In Vivo Anticancer Drug Screen. Data for tumor model L1210 Leukemia (intraperitoneal) in B6D2F1 (BDF1) mice
Settings: endpoint: mean survival time, higher = longer survival
Procedure, shortened: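 Antitumor effect is assessed in tumor-bearing animals. Survival in the compound arm is compared with a vehicle-dosed control arm and expressed as their quotient.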

[1] = dose: 100.0 mg/kg/injection, schedule: Q01DX009 (ip), vehicle: saline with Tween-80
[2] = dose: 200.0 mg/kg/injection, schedule: Q01DX009 (ip), vehicle: saline with Tween-80
[3] = dose: 400.0 mg/kg/injection, schedule: Q01DX009 (ip), vehicle: saline with Tween-80
[4] = dose: 12.5 mg/kg/injection, schedule: Q01DX009 (ip), vehicle: saline
[5] = dose: 25.0 mg/kg/injection, schedule: Q01DX009 (ip), vehicle: saline
[6] = dose: 100.0 mg/kg/injection, schedule: Q01DX009 (ip), vehicle: Klucel (hydroxypropylcellulose) (HPC)
[7] = dose: 200.0 mg/kg/injection, schedule: Q01DX009 (ip), vehicle: Klucel (hydroxypropylcellulose) (HPC)
[8] = dose: 25.0 mg/kg/injection, schedule: Q04DX003 (ip), vehicle: saline
[9] = dose: 100.0 mg/kg/injection, schedule: Q01DX001 (ip), vehicle: carboxymethylcellulose (CMC)
[10] = dose: 100.0 mg/kg/injection, schedule: Q01DX001 (ip), vehicle: saline
[11] = dose: 200.0 mg/kg/injection, schedule: Q01DX001 (ip), vehicle: carboxymethylcellulose (CMC)
[12] = dose: 400.0 mg/kg/injection, schedule: Q01DX001 (ip), vehicle: carboxymethylcellulose (CMC)
[13] = dose: 200.0 mg/kg/injection, schedule: Q01DX001 (ip), vehicle: saline

Measured: T/C

CC(=O)C1(C)Nc2cccc3cccc(c23)N1
inactive: [1] 97 % of control | [2] 106 % of control | [3] 96 % of control

C[N+](C)(C)/N=C\C1CC=CCC1 (stereo not drawn)
inactive: [4] 99 % of control | [5] 96 % of control | dose: 50.0 mg/kg/injection, schedule: Q01DX009 (ip), vehicle: saline 99 % of control and 105 % of control

CCOC(=O)c1cnc(SC)nc1Nc1ccc(C)cc1C
inactive: [6] 96 % of control | [7] 101 % of control | dose: 400.0 mg/kg/injection, schedule: Q01DX009 (ip), vehicle: Klucel (hydroxypropylcellulose) (HPC) 109 % of control

CCCCC(=O)N1C(C)CCC1C (stereo not drawn)
inactive: dose: 100.0 mg/kg/injection, schedule: Q04DX002 (ip), vehicle: saline 105 % of control | dose: 200.0 mg/kg/injection, schedule: Q04DX002 (ip), vehicle: saline 88 % of control

CC1OC(O[C@H]2C[C@@H](O)[C@]3(CO)[C@H]4[C@H](O)C[C@]5(C)[C@@H](C6=CC(=O)OC6)CC[C@]5(O)[C@@H]4CC[C@]3(O)C2)C(O)C(O)C1O (stereo partly drawn)
inactive: dose: 0.31 mg/kg/injection, schedule: Q01DX009 (ip), vehicle: saline 101 % of control | dose: 0.63 mg/kg/injection, schedule: Q01DX009 (ip), vehicle: saline 101 % of control | dose: 1.25 mg/kg/injection, schedule: Q01DX009 (ip), vehicle: saline 98 % of control | dose: 2.5 mg/kg/injection, schedule: Q01DX009 (ip), vehicle: saline 102 % of control and 108 % of control | dose: 12.5 mg/kg/injection, schedule: Q04DX003 (ip), vehicle: saline 92 % of control | [8] 103 % of control

COc1cc([C@@H]2c3cc4c(cc3[C@H](O)[C@H]3COC(=O)[C@@H]23)OCO4)cc(OC)c1OC
inactive: dose: 6.0 mg/kg/injection, schedule: Q01DX009 (ip), vehicle: Klucel (hydroxypropylcellulose) (HPC) 88 % of control | dose: 6.25 mg/kg/injection, schedule: Q01DX009 (ip), vehicle: saline 105 % of control | dose: 7.0 mg/kg/injection, schedule: Q01DX Z (ip), vehicle: methylcellulose (MC) 100 % of control | dose: 11.0 mg/kg/injection, schedule: Q01DX Z (ip), vehicle: methylcellulose (MC) 112 % of control | dose: 12.0 mg/kg/injection, schedule: Q01DX009 (ip), vehicle: Klucel (hydroxypropylcellulose) (HPC) 95 % of control | [4] 107 % of control | dose: 15.0 mg/kg/injection, schedule: Q01DX Z (ip), vehicle: methylcellulose (MC) 116 % of control | dose: 15.0 mg/kg/injection, schedule: Q04DX003 (ip), vehicle: Klucel (hydroxypropylcellulose) (HPC) 107 % of control | dose: 16.0 mg/kg/injection, schedule: Q01DX Z (ip), vehicle: methylcellulose (MC) 120 % of control | dose: 24.0 mg/kg/injection, schedule: Q01DX009 (ip), vehicle: Klucel (hydroxypropylcellulose) (HPC) 101 % of control | dose: 24.0 mg/kg/injection, schedule: Q01DX Z (ip), vehicle: methylcellulose (MC) 88 % of control | [5] 113 % of control | dose: 30.0 mg/kg/injection, schedule: Q01DX Z (ip), vehicle: methylcellulose (MC) 101 % of control | dose: 30.0 mg/kg/injection, schedule: Q04DX003 (ip), vehicle: Klucel (hydroxypropylcellulose) (HPC) 96 % of control | dose: 37.5 mg/kg/injection, schedule: Q04DX003 (ip), vehicle: Klucel (hydroxypropylcellulose) (HPC) 97 % of control | dose: 45.0 mg/kg/injection, schedule: Q01DX001 (ip), vehicle: saline 94 % of control and 102 % of control | dose: 48.0 mg/kg/injection, schedule: Q01DX009 (ip), vehicle: Klucel (hydroxypropylcellulose) (HPC) 120 % of control | dose: 50.0 mg/kg/injection, schedule: Q01DX001 (ip), vehicle: carboxymethylcellulose (CMC) 107 % of control | dose: 60.0 mg/kg/injection, schedule: Q04DX003 (ip), vehicle: Klucel (hydroxypropylcellulose) (HPC) 100 % of control | dose: 65.0 mg/kg/injection, schedule: Q01DX001 (ip), vehicle: saline 96 % of control and 124 % of control | dose: 75.0 mg/kg/injection, schedule: Q01DX009 (ip), vehicle: saline 92 % of control | dose: 75.0 mg/kg/injection, schedule: Q04DX003 (ip), vehicle: Klucel (hydroxypropylcellulose) (HPC) 114 % of control | [9] 105 % of control | [10] 96 % of control | dose: 120.0 mg/kg/injection, schedule: Q04DX003 (ip), vehicle: Klucel (hydroxypropylcellulose) (HPC) 104 % of control | dose: 150.0 mg/kg/injection, schedule: Q01DX001 (ip), vehicle: saline 93 % of control and 107 % of control | dose: 150.0 mg/kg/injection, schedule: Q04DX003 (ip), vehicle: Klucel (hydroxypropylcellulose) (HPC) 111 % of control | [11] 110 % of control | dose: 240.0 mg/kg/injection, schedule: Q04DX003 (ip), vehicle: Klucel (hydroxypropylcellulose) (HPC) 91 % of control | dose: 300.0 mg/kg/injection, schedule: Q04DX003 (ip), vehicle: Klucel (hydroxypropylcellulose) (HPC) 100 % of control | [12] 102 % of control

COC(=O)/C(C#N)=C/c1c[nH]c2ccccc12
inactive: [1] 101 % of control | dose: 100.0 mg/kg/injection, schedule: Q04DX003 (ip), vehicle: saline with Tween-80 101 % of control | [2] 95 % of control | dose: 200.0 mg/kg/injection, schedule: Q04DX003 (ip), vehicle: saline with Tween-80 93 % of control | [3] 100 % of control | dose: 400.0 mg/kg/injection, schedule: Q04DX003 (ip), vehicle: saline with Tween-80 98 % of control

O=C(O)c1ccc(N2C(=O)C=CC2=O)cc1 (tested in a mixture with another compound)
inactive: dose: 12.5 mg/kg/injection, schedule: Q01DX009 (ip), vehicle: acetone 90 % of control

Cc1cc(S(=O)(=O)F)ccc1NC(=O)NCc1ccc([N+](=O)[O-])cc1
inactive: [6] 100 % of control | [7] 106 % of control

CC(=O)NC(Cc1cnc[nH]1)C(=O)O (stereo not drawn)
inactive: [10] 97 % of control | [13] 98 % of control | dose: 400.0 mg/kg/injection, schedule: Q01DX001 (ip), vehicle: saline 97 % of control

CC1CC([P+](c2ccccc2)(c2ccccc2)c2ccccc2)=NN1 (stereo not drawn)
inactive: [8] 120 % of control | dose: 50.0 mg/kg/injection, schedule: Q04DX003 (ip), vehicle: saline 113 % of control

CCCCC(CCCC)C(=O)O
inactive: [9] 111 % of control | [11] 92 % of control | [12] 101 % of control

O=C(CCCC(=O)NNC(=S)NC1CCCCC1)NNC(=S)NC1CCCCC1
inactive: dose: 50.0 mg/kg/injection, schedule: Q01DX001 (ip), vehicle: saline 96 % of control | [10] 96 % of control | [13] 93 % of control
